Reference: patent US12070505B2, “Targeted peptide-drug conjugates” (priority 2021, dated 2024)
Where two headings read alike, the source gives them in different places.

How the values were obtained:
[1] = Stability of [R5K]W7A-Dox in fetal bovine serum (HPLC); assay type: in vitro ADME; conditions: 10% FBS, 37° C.
Description: Stability Studies. The stability of [R5K]W7A-Dox conjugate was evaluated using phosphate-buffered saline (PBS) and fetal bovine serum (FBS). FBS was purchased from Invitrogen and ATCC. FBS (20%) was incubated with [R5K]W7A-Dox (75 μL, 1 mM in water) at 37° C. followed by intermediate mixing. An aliquot of 75 μL of the mixture was taken out at different time intervals (5 min to 24 h) and diluted with water (75 μL). The mixture was analyzed by using analytical HPLC, detecting the wavelength of 490 nm. The area under the curve (AUC) was calculated and used to determine the percentage of released Dox and the remaining prodrug at a given time.

MES-SA/MX2 cells = test: LC50 by CCK-8 assay, Dox-resistant MES-SA/MX2; assay type: cell-based; conditions: FIG. 10: after 72 h
Description: (§1) Dox-resistant Cell Lines. Acquired resistance to Dox was induced in wild-type triple-negative breast cancer cell line MDA-MB-231 (MDA-231WT) as described before (Aliabadi, H. M.; et al. J. Control. Release 172:219-228, 2013, which is incorporated herein by reference). Briefly, MDA-231WT cells were exposed to Dox at an initial concentration of 0.05 μg/mL for one week or three consecutive expansions (whichever came later). […] Resistance induction was confirmed via calculation of LC50 following a sigmoidal effect model explained elsewhere (Bousoik, E.; et al. Front. Oncol. 9:1070, 2019, which is incorporated herein by reference) and determination of P-glycoprotein (P-gp) expression.
The cytotoxicity of the peptide-Dox conjugate in resistant triple-negative breast cancer and uterine sarcoma cell lines (MDA-231R, MDA-231WT, and MES-SA/MX2) was evaluated by a Cell Counting 8 (CCK8) KIT. The peptide-Dox conjugate was added to the cells in triplicate with different concentrations (0-40 μM). […] After this incubation period, 10 μL of CCK8 reagent was added to each well, and plates were incubated at the same conditions for 2 h. The absorbance of each well was determined at 450 nm using the SpectraMAX M5 microplate reader. […]
Efficiency in Dox-Resistant Cells. […] The cell viability was determined after this incubation period using the CCK-8 assay, as explained above. […]

[2] = tested on: uterine sarcoma cells (MES-SA/MX2)
Description: (§4) In Vitro Cytotoxicity Assay of Peptide-Drug Conjugates. […] In brief, CCRF-CEM cells were seeded at 50,000 cells in 0.1 mL per well in 98-well plates. In the case of other cell lines, the cells were seeded at 5,000 cells (0.1 mL per well in 96-well plates). […] Dox (5 μM) was used as a positive control, while water and cell culture medium were used as negative controls. The compounds were dissolved in water; water was used as a negative control to normalize the data. After the incubation period, MTS reagent (20 μL) was added to each well. The incubation was continued for 2 h. Cell viability was then determined by determination of the fluorescence intensity at 490 nm using a SpectraMax M2 microplate spectrophotometer. The percentage of cell viability was then calculated using the following equation: [(OD value of cells treated with the compound)−(OD value of culture medium)]/[(OD value of control cells)−(OD value of culture medium)]×100% (FIGS. 6-9).

MDA-231R cells = test: LC50 by CCK-8 assay, Dox-resistant MDA-231R; assay type: cell-based; conditions: MDA-231R (Dox-resistant); FIG. 10: after 72 h
Description: as §1
(§2) The cytotoxicity of the peptide-Dox conjugate in resistant triple-negative breast cancer and uterine sarcoma cell lines (MDA-231R, MDA-231WT, and MES-SA/MX2) was evaluated by a Cell Counting 8 (CCK8) KIT. The peptide-Dox conjugate was added to the cells in triplicate with different concentrations (0-40 μM). Cells were incubated at 37° C. and 5% CO2 for 24 h. After this incubation period, 10 μL of CCK8 reagent was added to each well, and plates were incubated at the same conditions for 2 h. The absorbance of each well was determined at 450 nm using the SpectraMAX M5 microplate reader. After subtracting the signal from blank wells that contain medium without cells in the plate with CCK-8 solution added, the results were normalized to cells treated with normal saline (considered as 100%)
(§3) Efficiency in Dox-Resistant Cells. In order to compare the cytotoxic effect of free and peptide-conjugated Dox in Dox-resistant cells, MDA-231WT (as a Dox-sensitive cell line as control) and MDA-231R and MES-SA/MX2 cells as Dox-resistant cells were exposed to a wide range of Dox (or Dox-equivalent for the peptide-conjugated drug) concentrations (0.05-40 μM). Cells were seeded in 96-well plates with approximately 50% confluency and were incubated for 24 h in 37° C. and 5% CO2. […] The cell viability was determined after this incubation period using the CCK-8 assay, as explained above. […]

LLC-PK1 kidney cells = test: Cytotoxicity, MTS assay, normal kidney cells
Description: (§5) In Vitro Cytotoxicity Assay of Peptide-Drug Conjugates. The cytotoxicity of the compounds was determined by using human leukemia cell line (CCRF-CEM), human ovarian adenocarcinoma cells (SKOV-3) cells, kidney cell line (LLC-PK1), gastric adenocarcinoma cells (AGS), and heart/myocardium cells (H9C2) to evaluate the toxicity of the generated peptides according to a previously reported procedure (Rahman, A.; et al. Proc. Am. Assoc. Cancer Res. 26:2295-2299, 1985, which is incorporated herein by reference). In brief, CCRF-CEM cells were seeded at 50,000 cells in 0.1 mL per well in 98-well plates. In the case of other cell lines, the cells were seeded at 5,000 cells (0.1 mL per well in 96-well plates). The cells were seeded in medium (RPMI-1640 containing FBS (10%)), 24 h prior to the experiment. The compounds at different concentrations (10-50 μM) were added to each well in triplicate and incubated for 24 and 72 h at 37° C. in a humidified atmosphere of 5% CO2. Dox (5 μM) was used as a positive control, while water and cell culture medium were used as negative controls. The compounds were dissolved in water; water was used as a negative control to normalize the data. After the incubation period, MTS reagent (20 μL) was added to each well. The incubation was continued for 2 h. Cell viability was then determined by determination of the fluorescence intensity at 490 nm using a SpectraMax M2 microplate spectrophotometer.

[3] = Cytotoxicity, MTS assay, normal kidney cells; conditions: pig, LLC-PK1 kidney cells
Description: as §5

MDA-231WT cells = test: LC50 by CCK-8 assay, wild-type cells; assay type: cell-based; conditions: MDA-231WT (wild type), FIG. 10: after 72 h
Description: as §1, §2, §3

SK-OV-3 cells = test: Cytotoxicity, MTS cell viability assay, SK-OV-3 (Example 1)
Description: as §4

[4] = tested on: gastric adenocarcinoma cells (AGS); test: Cytotoxicity, MTS cell viability assay, AGS
Description: as §4

CCRF-CEM cells = test: Cytotoxicity, MTS cell viability assay, CCRF-CEM
Description: as §4

H9C2 cells = test: Cytotoxicity, MTS assay, normal heart muscle cells (Example 1)
Description: as §5

[5] = as above; conditions: rat, H9C2 heart/myocardium cells
Description: as §5

COc1cccc2c1C(=O)c1c(O)c3c(c(O)c1C2=O)C[C@@](O)(C(=O)COC(=O)CCCC(=O)NCCC(=O)N[C@@H](Cc1c[nH]c2ccccc12)C(=O)N[C@@H](Cc1c[nH]c2ccccc12)C(=O)N[C@@H](Cc1c[nH]c2ccccc12)C(=O)N[C@@H](Cc1c[nH]c2ccccc12)C(=O)N[C@@H](Cc1c[nH]c2ccccc12)C(=O)N[C@@H](Cc1c[nH]c2ccccc12)C(=O)N[C@@H](Cc1c[nH]c2ccccc12)C(=O)NCCCC[C@@H]1NC(=O)[C@H](CCCNC(=N)N)NC(=O)[C@H](CCCNC(=N)N)NC(=O)[C@H](CCCNC(=N)N)NC(=O)[C@H](CCCNC(=N)N)NC(=O)[C@H](CCCNC(=N)N)NC1=O)C[C@@H]3O[C@H]1C[C@H](N)[C@H](O)[C@H](C)O1 [[R5K]W7A-Dox]
Dox released ([1]; after 4 h): 55%
remaining at 24 h ([1]; bovine, 10% fetal bovine serum, after 24 h, read-out: peptide-Dox conjugate remained intact): 25%
CC50 (MES-SA/MX2 cells): 4.3 µM
Cell Viability (%) after 72 h ([2]; 5 μM, listed as [R5K]W7-Dox): 97 ± 2%
Cell Viability (%) after 72 h ([2]; 5 μM, listed as [R5K]W7Dox): 113 ± 1%
Cell Viability (%) after 72 h ([2]; 10 μM): 89 ± 2%
Cell Viability (%) after 72 h ([2]; 25 μM): 23 ± 4%
reduction of cell viability ([2]; 25 μM, 72 h): ~80%
cytotoxicity ([2]; 5 and 10 μM, 72 h): 0-10%
CC50 (MDA-231R cells): 2.3 µM
cytotoxicity to normal kidney cells (LLC-PK1 kidney cells; LLC-PK1, 5-10 μM): 5-7%
cytotoxicity (LLC-PK1 kidney cells; LLC-PK1, as high as 10 μM, 24 h and 72 h): not cytotoxic
Cell Viability (%) after 24 h (LLC-PK1 kidney cells; normal kidney LLC-PK1, 5 μM): 88 ± 0%
Cell Viability (%) after 72 h (LLC-PK1 kidney cells; normal kidney LLC-PK1, 5 μM): 93 ± 6%
Cell Viability (%) after 72 h (LLC-PK1 kidney cells; normal kidney LLC-PK1, 10 μM): 95 ± 3%
viability at 24 h, 5 µM [3]: 88%
viability at 24 h, 25 µM [3]: 42%
viability at 24 h, 50 µM [3]: 33 ± 1%
viability at 72 h, 5 µM [3]: 93 ± 6%
viability at 72 h, 10 µM [3]: 95 ± 3%
viability at 72 h, 25 µM [3]: 94 ± 1%
viability at 72 h, 50 µM [3]: 33 ± 1%
CC50 (MDA-231WT cells): 0.56 µM
CC50 (MDA-231WT cells; listed as Conjugated Dox): 0.66 µM
Cell Viability (%) after 24 h (SK-OV-3 cells; 5 μM): 87 ± 6%
Cell Viability (%) after 72 h (SK-OV-3 cells; 5 μM): 71 ± 3%
reduction of cell survival/viability (SK-OV-3 cells; 5 μM, 24 h): 19%
reduction of cell survival/viability (SK-OV-3 cells; 5 μM, 72 h): 29%
Cell Viability (%) after 24 h (SK-OV-3 cells; 10 μM): 87 ± 0%
Cell Viability (%) after 72 h (SK-OV-3 cells; 10 μM): 61 ± 6%
reduction of cell viability (SK-OV-3 cells; 10 μM, 72 h): 39%
Cell Viability (%) after 24 h (SK-OV-3 cells; 25 μM): 76 ± 1%
Cell Viability (%) after 72 h (SK-OV-3 cells; 25 μM): 52 ± 3%
reduction of cell viability / cytotoxicity (SK-OV-3 cells; 25 μM, 72 h): 48%
Cell Viability (%) after 24 h ([4]; 5 μM): 95 ± 0%
Cell Viability (%) after 72 h ([4]; 5 μM): 27 ± 6%
reduction of cell survival/viability ([4]; 5 μM, 72 h): 73%
Cell Viability (%) after 24 h ([4]; 10 μM): 104 ± 5%
Cell Viability (%) after 72 h ([4]; 10 μM): 13 ± 3%
Cell Viability (%) after 24 h ([4]; 25 μM): 71 ± 0%
Cell Viability (%) after 72 h ([4]; 25 μM): 10 ± 1%
Cell Viability (%) after 24 h ([4]; 50 μM): 32 ± 1%
Cell Viability (%) after 72 h ([4]; 50 μM): 11 ± 1%
cytotoxicity ([4]; 5 and 10 μM, 24 h): not significantly cytotoxic
reduction of cell viability ([4]; different concentrations, 72 h): 73-90%
Cell Viability (%) after 24 h (CCRF-CEM cells; 5 μM): 74 ± 0%
Cell Viability (%) after 72 h (CCRF-CEM cells; 5 μM): 16 ± 6%
reduction of cell survival/viability (CCRF-CEM cells; 5 μM, 72 h): 84%
Cell Viability (%) after 24 h (CCRF-CEM cells; 10 μM): 68 ± 0%
Cell Viability (%) after 72 h (CCRF-CEM cells; 10 μM): 13 ± 3%
Cell Viability (%) after 24 h (CCRF-CEM cells; 25 μM): 36 ± 0%
Cell Viability (%) after 72 h (CCRF-CEM cells; 25 μM): 15 ± 1%
reduction of cell viability (CCRF-CEM cells; 25 μM, 24 h): 64%
cytotoxicity (CCRF-CEM cells; at 5, 10, and 25 μM, 72 h): 84-87%
cytotoxicity to heart cells (H9C2 cells; H9C2, 5-10 μM): < 9%
toxicity (H9C2 cells; H9C2, 5-10 μM, 24 h, 72 h, and 96 h): did not show any significant toxicity
Cell Viability (%) after 24 h (H9C2 cells; normal heart H9C2, 5 μM): 100 ± 2%
Cell Viability (%) after 24 h (H9C2 cells; normal heart H9C2, 10 μM): 101 ± 0%
Cell Viability (%) after 72 h (H9C2 cells; normal heart H9C2, 10 μM): 105 ± 3%
viability at 24 h, 5 µM [5]: 100 ± 2%
viability at 24 h, 10 µM [5]: 101%
viability at 24 h, 25 µM [5]: 68%
viability at 72 h, 10 µM [5]: 105 ± 3%
viability at 72 h, 25 µM [5]: 37 ± 1%
viability at 96 h, 5 µM [5]: 115 ± 1%
viability at 96 h, 10 µM [5]: 91%
viability at 96 h, 25 µM [5]: 39%
